Test results as given in the supplement of paper PMC10627819.

Experiments:
[1] = tested on: B. subtilis 168; assay: fitness (endpoint OD595 vs no drug) (fraction); higher = more growth
Summary of the method: (§1)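 Background-subtracted growth curves were the basis for fitness, taken as the optical density at entry into stationary phase over the robust mean of no-drug control wells. A cap of 1 was applied. The curves came from OD595 readings every 30 min for 14 h at 37 °C, in 384-well plates seeded at OD595 0.01 with 30 µl, or 55 µl for S. pneumoniae.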

[2] = tested on: S. pneumoniae D39V; assay: as above
Summary of the method: as §1

[3] = tested on: S. aureus DSM 20231; assay: as above
Summary of the method: as §1

[4] = tested on: S. aureus Newman; assay: as above
Summary of the method: as §1

[5] = tested on: B. subtilis 168; assay: Bliss interaction score (quartile over a dose matrix) (fitness difference); higher = more antagonism (negative = synergy)
Summary of the method: (§2)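 Fitness was defined as normalised growth: OD595 at the start of stationary phase divided by the plate's robust no-drug mean and capped at 1. Single-drug fitness was inferred from combination measurements. The Bliss score is observed fitness minus the product of the single-drug values, summarised by quartiles across technical, biological and donor/recipient replicates.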

[6] = tested on: S. pneumoniae D39V; assay: as above
Summary of the method: as §2

[7] = tested on: S. aureus DSM 20231; assay: as above
Summary of the method: as §2

[8] = tested on: S. aureus Newman; assay: as above
Summary of the method: as §2

[9] = first compound 0.625 µg/mL, partner 1 µg/mL
[10] = first compound 0.625 µg/mL, partner 2 µg/mL
[11] = first compound 0.625 µg/mL, partner 4 µg/mL
[12] = first compound 1.25 µg/mL, partner 1 µg/mL
[13] = first compound 1.25 µg/mL, partner 2 µg/mL
[14] = first compound 1.25 µg/mL, partner 4 µg/mL
[15] = first compound 2.5 µg/mL, partner 1 µg/mL
[16] = first compound 2.5 µg/mL, partner 2 µg/mL
[17] = first compound 2.5 µg/mL, partner 4 µg/mL
[18] = first compound 0.625 µg/mL, partner 0.625 µg/mL
[19] = first compound 0.625 µg/mL, partner 1.25 µg/mL
[20] = first compound 0.625 µg/mL, partner 2.5 µg/mL
[21] = first compound 1.25 µg/mL, partner 0.625 µg/mL
[22] = first compound 1.25 µg/mL, partner 1.25 µg/mL
[23] = first compound 1.25 µg/mL, partner 2.5 µg/mL
[24] = first compound 2.5 µg/mL, partner 0.625 µg/mL
[25] = first compound 2.5 µg/mL, partner 1.25 µg/mL
[26] = first compound 2.5 µg/mL, partner 2.5 µg/mL
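Throughout, for Bliss interaction score (quartile over a dose matrix): first quartile when negative (synergy) and third quartile when positive (antagonism).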

For `COc1cccc2c1C(=O)c1c(O)c3c(c(O)c1C2=O)C[C@@](O)(C(=O)CO)C[C@@H]3O[C@H]1C[C@H](N)[C@H](O)[C@H](C)O1` [Doxorubicin] + Cc1cc(NS(=O)(=O)c2ccc(N)cc2)no1 [Sulfamethoxazol], the fitness ([1]; first compound 0.625 µg/mL, partner 0.5 µg/mL, one replicate) was 0.938, the fitness [1, 9] was 0.929 and the fitness [1, 10] was 0.878. The fitness [1, 11] was ≥ 1, the fitness ([1]; first compound 1.25 µg/mL, partner 0.5 µg/mL, one replicate) was 0.883 and the fitness [1, 12] was 0.885. It also gave a fitness [1, 13] of 0.865, a fitness [1, 14] of 0.893 and a fitness ([1]; first compound 2.5 µg/mL, partner 0.5 µg/mL, one replicate) of 0.969. The fitness [1, 15] was 0.723, the fitness [1, 16] was 0.665 and the fitness [1, 17] was 0.695. For the same molecule, the fitness ([2]; first compound 0.25 µg/mL, partner 1 µg/mL) was 0.943, the fitness ([2]; first compound 0.25 µg/mL, partner 2 µg/mL) was 0.949 and the fitness ([2]; first compound 0.25 µg/mL, partner 4 µg/mL) was 0.965. It also gave a fitness ([2]; first compound 0.5 µg/mL, partner 1 µg/mL) of 0.93, a fitness ([2]; first compound 0.5 µg/mL, partner 2 µg/mL) of 0.97 and a fitness ([2]; first compound 0.5 µg/mL, partner 4 µg/mL) of 0.954. It also gave a fitness ([2]; first compound 1 µg/mL, partner 1 µg/mL) of 0.904, a fitness ([2]; first compound 1 µg/mL, partner 2 µg/mL) of 0.936 and a fitness ([2]; first compound 1 µg/mL, partner 4 µg/mL) of 0.92. It also gave a fitness [3, 9] of 0.831, a fitness [3, 10] of 0.83 and a fitness [3, 11] of 0.812. The fitness [3, 12] was 0.791, the fitness [3, 13] was 0.911 and the fitness [3, 14] was 0.874. It also gave a fitness [3, 15] of 0.737, a fitness [3, 16] of 0.869 and a fitness [3, 17] of 0.845. The fitness [4, 9] was 0.852, the fitness [4, 10] was 0.856 and the fitness [4, 11] was 0.854. For the same molecule, the fitness ([4]; first compound 0.625 µg/mL, partner 8 µg/mL, one replicate) was 0.887, the fitness [4, 12] was 0.816 and the fitness [4, 13] was 0.802. For the same molecule, the fitness [4, 14] was 0.835, the fitness ([4]; first compound 1.25 µg/mL, partner 8 µg/mL, one replicate) was 0.877 and the fitness [4, 15] was 0.758. For the same molecule, the fitness [4, 16] was 0.765, the fitness [4, 17] was 0.787 and the fitness ([4]; first compound 2.5 µg/mL, partner 8 µg/mL, one replicate) was 0.875. For the same molecule, the Bliss interaction score [5] was 0.0735, the Bliss interaction score [6] was 0.0685 and the Bliss interaction score [7] was -0.0832. It also gave a Bliss interaction score [8] of -0.0666.
In the case of `COc1cccc2c1C(=O)c1c(O)c3c(c(O)c1C2=O)C[C@@](O)(C(=O)CO)C[C@@H]3O[C@H]1C[C@H](N)[C@H](O)[C@H](C)O1` [Doxorubicin] + Cc1ncc([N+](=O)[O-])n1CCO [Metronidazole], the fitness [1, 18] is reported as ≥ 1, the fitness [1, 19] is reported as 0.941 and the fitness [1, 20] is reported as 0.937. It also gave a fitness [1, 21] of 0.964, a fitness [1, 22] of 0.929 and a fitness [1, 23] of 0.956. The fitness [1, 24] was 0.74, the fitness [1, 25] was 0.699 and the fitness [1, 26] was 0.653. The fitness ([2]; first compound 0.25 µg/mL, partner 1.073 µg/mL) was 0.827, the fitness ([2]; first compound 0.25 µg/mL, partner 1.25 µg/mL) was 0.993 and the fitness ([2]; first compound 0.25 µg/mL, partner 2.145 µg/mL) was 0.79. For the same molecule, the fitness ([2]; first compound 0.25 µg/mL, partner 2.5 µg/mL) was ≥ 1, the fitness ([2]; first compound 0.25 µg/mL, partner 4.29 µg/mL) was 0.809 and the fitness ([2]; first compound 0.25 µg/mL, partner 5 µg/mL) was 0.993. For the same molecule, the fitness ([2]; first compound 0.5 µg/mL, partner 1.073 µg/mL) was 0.954, the fitness ([2]; first compound 0.5 µg/mL, partner 1.25 µg/mL) was ≥ 1 and the fitness ([2]; first compound 0.5 µg/mL, partner 2.145 µg/mL) was 0.895. For the same molecule, the fitness ([2]; first compound 0.5 µg/mL, partner 2.5 µg/mL) was ≥ 1, the fitness ([2]; first compound 0.5 µg/mL, partner 4.29 µg/mL) was 0.869 and the fitness ([2]; first compound 0.5 µg/mL, partner 5 µg/mL) was 0.996. The fitness ([2]; first compound 1 µg/mL, partner 1.073 µg/mL) was 0.895, the fitness ([2]; first compound 1 µg/mL, partner 1.25 µg/mL) was 0.969 and the fitness ([2]; first compound 1 µg/mL, partner 2.145 µg/mL) was 0.907. It also gave a fitness ([2]; first compound 1 µg/mL, partner 2.5 µg/mL) of 0.981, a fitness ([2]; first compound 1 µg/mL, partner 4.29 µg/mL) of 0.843 and a fitness ([2]; first compound 1 µg/mL, partner 5 µg/mL) of 0.944. The fitness [3, 18] was 0.899, the fitness [3, 19] was 0.972 and the fitness [3, 20] was 0.994. It also gave a fitness [3, 21] of 0.874, a fitness [3, 22] of 0.974 and a fitness [3, 23] of 0.965. The fitness [3, 24] was 0.791, the fitness [3, 25] was 0.84 and the fitness [3, 26] was 0.897. For the same molecule, the fitness [4, 18] was 0.843, the fitness ([4]; first compound 0.625 µg/mL, partner 0.781 µg/mL) was 0.761 and the fitness [4, 19] was 0.881. For the same molecule, the fitness ([4]; first compound 0.625 µg/mL, partner 1.562 µg/mL) was 0.76, the fitness [4, 20] was 0.853 and the fitness ([4]; first compound 0.625 µg/mL, partner 3.124 µg/mL) was 0.76. It also gave a fitness [4, 21] of 0.774, a fitness ([4]; first compound 1.25 µg/mL, partner 0.781 µg/mL) of 0.765 and a fitness [4, 22] of 0.807. The fitness ([4]; first compound 1.25 µg/mL, partner 1.562 µg/mL) was 0.793, the fitness [4, 23] was 0.793 and the fitness ([4]; first compound 1.25 µg/mL, partner 3.124 µg/mL) was 0.806. It also gave a fitness [4, 24] of 0.753, a fitness ([4]; first compound 2.5 µg/mL, partner 0.781 µg/mL) of 0.75 and a fitness [4, 25] of 0.795. It also gave a fitness ([4]; first compound 2.5 µg/mL, partner 1.562 µg/mL) of 0.751, a fitness [4, 26] of 0.732 and a fitness ([4]; first compound 2.5 µg/mL, partner 3.124 µg/mL) of 0.76. It also gave a Bliss interaction score [5] of 0.0987, a Bliss interaction score [6] of 0.0624 and a Bliss interaction score [7] of 0.0515. For the same molecule, the Bliss interaction score [8] was -0.0468.
